In PubChem BioAssay (NCI):
Where “and” joins values, the source holds several entries; their conditions need not be identical. Identical values can stand only once.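 Step 1: Grow cells in 96-well plates. Step 2: Expose to compound for 48 hours at 5 concentrations. Step 3: Interpolate endpoints linearly; if unreached, use highest concentration. GI50 = concentration required for 50% inhibition of growth. TGI denotes the concentration required for complete inhibition of growth.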

How the values were obtained:
Assay in all cases: DTP human tumour cell line panel, 48 h
[1] = system: HCC-2998 colon
[2] = system: DU-145 prostate
[3] = system: SF-268 CNS
[4] = system: SNB-19 CNS
[5] = system: U251 CNS
[6] = system: UO-31 renal
[7] = system: SK-OV-3 ovarian
[8] = system: UACC-257 melanoma
[9] = system: HOP-62 NSCLC
[10] = system: HOP-92 NSCLC

COc1cc(C2SCC(=O)N2NC(=O)c2ccc(NC(C)=O)cc2)cc(OC)c1OC (stereo not given)
TGI [1]: > 100 µM
TGI [2]: > 100 µM
TGI [3]: > 100 µM
TGI [4]: > 100 µM
TGI [5]: > 100 µM
TGI [6]: > 100 µM
TGI [7]: > 100 µM
TGI [8]: > 100 µM
TGI [9]: > 100 µM
TGI [10]: > 100 µM

CCCCCCCCCCCCCCCCP(=O)(O)OP(=O)(O)OCC1OC(n2ccc(N)nc2=O)C(O)C1O (stereo not given)
GI50 [1]: 99.7 µM and 17 µM
TGI [1]: > 100 µM and 91.2 µM
TGI [2]: > 100 µM
GI50 [3]: 83.3 µM and 41.4 µM
TGI [3]: > 100 µM
GI50 [4]: 70.5 µM and 16.1 µM
TGI [4]: > 100 µM
GI50 [5]: 43.1 µM and 13.5 µM
TGI [5]: > 100 µM and 38 µM
TGI [6]: > 100 µM and 28 µM
GI50 [7]: > 100 µM and 11 µM
TGI [7]: > 100 µM and 72.6 µM
GI50 [8]: > 100 µM and 41.8 µM
TGI [8]: > 100 µM
GI50 [9]: 31.5 µM and 4.41 µM
TGI [9]: 97.3 µM and 44.6 µM
GI50 [10]: 65.3 µM and 17.6 µM
TGI [10]: > 100 µM and 67.4 µM

[N-]=[N+]=NC1(c2ccccc2)C(=O)Nc2ccccc2C1=O (stereo not given)
TGI [1]: > 100 µM
TGI [2]: > 100 µM
TGI [3]: > 100 µM
TGI [4]: > 100 µM
TGI [5]: > 100 µM
TGI [6]: 73.8 µM
TGI [7]: > 100 µM
TGI [8]: > 100 µM
TGI [9]: > 100 µM
TGI [10]: 84.5 µM

CC1CN=C(c2cccc(OCc3ccc(COc4cccc(C5=NCC(C)N5)c4)cc3)c2)N1 (stereo not given)
TGI [1]: 48.4 µM
TGI [2]: > 100 µM
TGI [3]: > 100 µM
TGI [4]: > 100 µM
TGI [5]: > 100 µM
TGI [6]: > 100 µM
TGI [7]: > 100 µM
TGI [8]: 44.8 µM
TGI [9]: > 100 µM
TGI [10]: > 100 µM

CC1=NNC(N)=N/C1=C/C(Sc1ccc(Cl)cc1)c1cccs1 (stereo not given)
TGI [1]: 26.9 µM
TGI [2]: 68.2 µM
TGI [3]: 30.5 µM
TGI [4]: 85.7 µM
TGI [5]: > 100 µM
TGI [6]: 17.7 µM
TGI [7]: 26.4 µM
TGI [8]: 45.5 µM
TGI [9]: 28.7 µM
TGI [10]: > 100 µM

CC1=NN(c2ccc(C)cc2)C2(C1)SCC(=O)N2c1nc2ccccc2s1 (stereo not given)
TGI [1]: 48.3 µM
TGI [2]: > 100 µM
TGI [3]: > 100 µM
TGI [4]: > 100 µM
TGI [5]: 65.5 µM
TGI [6]: > 100 µM
TGI [7]: > 100 µM
TGI [8]: 55.1 µM
TGI [9]: > 100 µM
TGI [10]: > 100 µM

CCOC(=O)c1cc(-c2ccc(OC)c(OC)c2)c[nH]1
TGI [1]: > 10 µM
TGI [2]: > 10 µM
TGI [3]: > 10 µM
TGI [4]: > 10 µM
TGI [5]: > 10 µM
TGI [6]: > 10 µM
TGI [7]: > 10 µM
TGI [8]: > 10 µM
TGI [9]: > 10 µM
TGI [10]: > 10 µM

Oc1c2cccc1Cc1cccc3c1OCCOCCOCCOCCOc1c(cccc1Cc1cccc(c1O)C3)C2
TGI [1]: > 100 µM
TGI [2]: > 100 µM
TGI [3]: > 100 µM
TGI [4]: > 100 µM
TGI [5]: > 100 µM
TGI [6]: > 100 µM
TGI [7]: > 100 µM
TGI [8]: > 100 µM
TGI [9]: > 100 µM
TGI [10]: > 100 µM

O=C1/C(=C/c2ccccc2S)N=C(c2ccccc2)N1c1ccc2c(c1)Sc1cc(N3C(=O)/C(=C/c4ccccc4S)N=C3c3ccccc3)ccc1N2
TGI [1]: 37.1 µM
TGI [2]: 40.4 µM
TGI [3]: 39.6 µM
TGI [4]: 30.4 µM
TGI [5]: 40.5 µM
TGI [6]: 29.9 µM
TGI [7]: 33.8 µM
TGI [8]: 42.3 µM
TGI [9]: 72.7 µM
TGI [10]: 34.5 µM

COc1ccccc1C(=O)c1c(N2CCCCC2)c(=O)c1=O
TGI [1]: > 100 µM
TGI [2]: > 100 µM
TGI [3]: > 100 µM
TGI [4]: > 100 µM
TGI [5]: > 100 µM
TGI [6]: > 100 µM
TGI [7]: > 100 µM
TGI [8]: > 100 µM
TGI [9]: > 100 µM
TGI [10]: > 100 µM

CCCCCCCCCCCCCCCCOCC(CC(F)(F)P(=O)(O)O)OC(C)=O (stereo not given)
TGI [1]: > 50 µM
TGI [2]: > 50 µM
TGI [3]: > 50 µM
TGI [4]: > 50 µM
TGI [5]: > 50 µM
TGI [6]: > 50 µM
TGI [7]: > 50 µM
TGI [8]: > 50 µM
TGI [9]: > 50 µM
TGI [10]: > 50 µM

O=C(c1ccccc1F)c1c(NCc2ccccc2)c(=O)c1=O
TGI [1]: > 100 µM
TGI [2]: > 100 µM
TGI [3]: > 100 µM
TGI [4]: > 100 µM
TGI [5]: > 100 µM
TGI [6]: > 100 µM
TGI [7]: > 100 µM
TGI [8]: > 100 µM
TGI [9]: > 100 µM
TGI [10]: > 100 µM

COc1ccc(N2C(=O)C3c4[nH]c5ccc(C)cc5c4C4CCC(C(C)C)CC4C3C2=O)cc1 (stereo not given)
TGI [1]: > 100 µM
TGI [2]: > 100 µM
TGI [3]: > 100 µM
TGI [4]: > 100 µM
TGI [5]: > 100 µM
TGI [6]: > 100 µM
TGI [7]: > 100 µM
TGI [8]: > 100 µM
TGI [9]: > 100 µM
TGI [10]: > 100 µM

Cc1cccc(NC(=O)CC(=O)N2N=C(N3c4ccccc4Sc4ccccc43)CC2c2ccccc2)c1 (stereo not given)
TGI [1]: > 100 µM
TGI [2]: > 100 µM
TGI [3]: > 100 µM
TGI [4]: > 100 µM
TGI [5]: > 100 µM
TGI [6]: > 100 µM
TGI [7]: > 100 µM
TGI [8]: > 100 µM
TGI [9]: > 100 µM
TGI [10]: > 100 µM

CC1=NN(c2nc(N)nc(/C(C#N)=C/c3ccncc3)n2)C(C)(C)C1
TGI [1]: > 100 µM
TGI [2]: > 100 µM
TGI [3]: > 100 µM
TGI [4]: > 100 µM
TGI [5]: > 100 µM
TGI [6]: > 100 µM
TGI [7]: > 100 µM
TGI [8]: > 100 µM
TGI [9]: > 100 µM
TGI [10]: > 100 µM

Oc1ccc2ccccc2c1-c1nnc(CCCCCCCCc2nnc(-c3c(O)ccc4ccccc34)o2)o1
GI50 [1]: 5.04 µM
TGI [1]: 11.9 µM and > 62.1 µM
GI50 [2]: 2.38 µM
TGI [2]: 9.59 µM and > 24.2 µM
TGI [3]: > 100 µM
GI50 [4]: 17.6 µM
TGI [4]: 25 µM and > 100 µM
GI50 [5]: 17.2 µM
TGI [5]: 25 µM and > 63.8 µM
GI50 [6]: 0.93 µM
TGI [6]: 19.2 µM and 15.4 µM
TGI [7]: > 100 µM
GI50 [8]: 2.26 µM
TGI [8]: 25 µM and > 100 µM
GI50 [9]: > 25 µM
TGI [9]: > 25 µM and 12.4 µM
TGI [10]: > 79 µM
